# Data taken from patent US12685773B2 (priority 2020, dated 2026).
# Assays:
# relapsed/refractory HL = conditions: cited from earlier work
# [1] = 9 patients evaluated at 6 weeks after infusion
# [2] = 3 patients did not have data at 3 months
# [3] = AE of special interest, classical HL patients
# [4] = Grade 3 or higher AE, classical HL patients
# [5] = not resolved by Day 28, classical HL patients
compound,measurement,setting,value
cyclophosphamide and fludarabine,CR,relapsed/refractory HL; [1],66.6%
same,ORR,relapsed/refractory HL; [1],66.6%
same,PD,relapsed/refractory HL; [1],33.3%
same,disease progression: patients,relapsed/refractory HL; out of 9 patients evaluated at 6 weeks after infusion,3
same,CR: patients,"relapsed/refractory HL; out of 9 patients evaluated at 6 weeks after infusion, cyclophosphamide 500 mg/m^2 and fludarabine 30 mg/m^2 daily for 3 days",6
Cn1c(CCCC(=O)O)nc2cc(N(CCCl)CCCl)ccc21 [Benda],Prolonged Grade 3/4 Anemia (at month 3): n,[2],0
same,Prolonged Grade 3/4 Neutropenia (at month 3): n,[2],0
same,Prolonged Grade 3/4 Thrombocytopenia (at month 3): n,[2],0
same,Cytokine Release Syndrome (all Grade 1): %,[3],(13) %
same,Cytokine Release Syndrome (all Grade 1): n,[3],1
same,Anemia: n,[4],0
same,Dyspnea: n,[4],0
same,Headache: n,[4],0
same,Hypoalbuminemia: n,[4],0
same,Hyponatremia: n,[4],0
same,Leukopenia: %,[4],(38) %
same,Leukopenia: n,[4],3
same,Lung Infection: n,[4],0
same,Lymphopenia: %,[4],(100) %
same,Lymphopenia: n,[4],8
same,Neutropenia: %,[4],(25) %
same,Neutropenia: n,[4],2
same,Pharyngitis: n,[4],0
same,Rash: n,[4],0
same,Thrombocytopenia: %,[4],(13) %
same,Thrombocytopenia: n,[4],1
same,Grade 3/4 Anemia at day 28: n,classical HL patients,0
same,Rash (Any Grade): %,classical HL patients,(25) %
same,Rash (Any Grade): n,"classical HL patients, maculopapular skin rash",2
same,Grade 3/4 Neutropenia at day 28: n,[5],0
same,Grade 3/4 Thrombocytopenia at day 28: n,[5],0
